How the values were obtained:
[1] = assay type: physicochemical
From the text: (e) Thin layer chromatography: Three ninhydrin-positive spots, of which, in each case, only one spot corresponds to the substances which is active in the bioautogram, are found in all the solvent systems used which contain acetic acid. This fact could be ascribed to the lability of the antibiotic in acetic acid solution. In neutral solvent systems, only one ninhydrin-positive spot is found in each case.

[2] = system: Megoura viciae (vetch aphid); conditions: in vivo
Method: The tests with Megoura viciae were carried out on potted field bean plants (Vicia faba, variety "Saxa") under laboratory conditions. The test animals were transferred to the test plants only after the plants had been treated and the spray coating had dried on. The tests were as a rule evaluated 5 days after the start of the test, calculated from the time at which the test animals were introduced.

In the case of Nikkomycin, the “stability in acetic acid solution” value [1] is reported as “lability” and the “mortality of the larvae which had developed normally during the ecdysis stages” value [2] is reported as “more than 90%”.

Reference: patent US4287186A, “Antibiotics, a process for their preparation and their use as plant protection agents” (Bayer Aktiengesellschaft, priority 1979, dated 1981)
